Reference: patent US10945992B1, “Dosage forms of rofecoxib and related methods” (Tremeau Pharmaceuticals, Inc., priority 2019, dated 2021)
Read-outs that look alike come from different tables or passages of the source.

Assay: TRM-201-PK-102 single-dose four-period crossover pharmacokinetic study, fasted healthy subjects
Type: in vivo, human
Details: human, plasma, oral
Procedure: A Single-Dose, Open-Label, Phase 1, Four-Period Crossover Pharmacokinetic Study of TRM-201 (Rofecoxib) 12.5 mg, 17.5 mg, 20 mg and 25 mg Administered to Healthy Subjects in a Fasting State, with Comparison to Historical Pharmacokinetic Parameters of Previously Marketed Rofecoxib (“TRM-201-PK-102” or “102 PK Study”)
This was a single-center, open-label four-period crossover PK study of TRM-201. The study included 24 subjects who received TRM-201 as a single dose of 12.5 mg, 17.5 mg, 20 mg and 25 mg to assess the PK of TRM-201 in healthy volunteers under fasted conditions. Subjects were randomized to one of four treatment sequences. The PK data from the current study along with the data from the TRM-201-PK-101 study (Example 4) was used to compare to historical pharmacokinetic parameters of previously marketed rofecoxib, all in a fasted state.
In each of the four dosing periods, subjects fasted overnight for at least 10 hours before study drug dosing. While fasting, subjects had nothing to eat and only water to drink. Water was permitted as desired, except for the period between 1 hour before and 1 hour after study drug dosing (excepting as permitted for dosing). After the 2-hour PK blood sample, subjects were allowed one 250-mL cup of clear apple juice. After the 4-hour PK blood sample, subjects were served a light lunch. Following the light lunch, subjects received standardized meals according to the clinic's standard procedures that were scheduled at consistent times and at least 15 minutes before or 15 minutes after PK sampling time points. Blood was withdrawn for PK analysis at predefined time points. For each dosing period the last time point was 120 hours after dosing with study drug (Day 6). After the 120 hour PK sample, the EOP procedures was completed, subjects remained in-clinic for the in-between dose period day (Days 7, 14, and 21) and began the next dosing period starting with an overnight fast for at least 10 hours on Day −1 of the subsequent dosing period. Pharmacokinetic and safety endpoints were evaluated.
The study drug, TRM-201, was an immediate-release tablet that contained 12.5 mg rofecoxib, 17.5 mg rofecoxib, 20 mg rofecoxib or 25 mg rofecoxib. The 7.25-mm diameter tablets were off-white, round, and uncoated with no markings. TRM-201 tablets were for oral administration.
For each sample, approximately 3 mL of blood were drawn. The samples were obtained by a straight stick or via an in-dwelling intravenous (IV) catheter in a forearm vein. Additional details for the collection, processing, storage, and shipping of PK samples were provided in the study manual.
Pharmacokinetic samples will be analyzed using a validated assay for rofecoxib in human plasma. Assay results and validation details will be provided in a separate bioanalytical report. The following PK parameters for rofecoxib will be calculated as primary endpoints using standard noncompartmental methods: AUC0-∞ and Cmax. Secondary endpoints include Tmax, and t1/2. Additional PK parameters (e.g., CL/F, and Vd/F) will also be calculated using standard noncompartmental methods.
Individual plasma concentrations for rofecoxib and PK sampling time deviation data will be presented in a data listing. Plasma concentration data will be summarized by time point using the following descriptive statistics: number of subjects, arithmetic mean, SD, coefficient of variation (CV), geometric mean, natural-log-scale SD, geometric CV, median, minimum, and maximum. Individual plasma concentration versus actual time profiles were presented on both linear and semilogarithmic scales. Additionally, arithmetic mean concentration versus scheduled time profiles were presented on linear scales and geometric means on semilogarithmic scales.
The PK parameters of rofecoxib were analyzed based on the actual sampling times. […]

[1] = 12.5 mg, read-out: arithmetic mean plasma concentration
[2] = 12.5 mg, read-out: geometric mean plasma concentration
[3] = 17.5 mg, read-out: geometric mean plasma concentration

Which results are given for `CS(=O)(=O)c1ccc(C2=C(c3ccccc3)C(=O)OC2)cc1` [TRM-201, 4-[4-(methylsulfonyl)phenyl]-3-phenyl-2(5H)-furanone]?
Cmax (12.5 mg, 102 study, body weight 77.1-90 kg, read-out: arithmetic mean Cmax): 127 ng/mL; AUC(0-inf) (12.5 mg, 102 study, body weight 77.1-90 kg, read-out: geometric mean AUC0-∞): 1690 ng·h/mL; Cmax (12.5 mg, 102 study, body weight 77.1-90 kg, read-out: geometric mean Cmax): 125 ng/mL; AUC(0-inf) (12.5 mg, 102 study, non-Hispanic or non-Latino subjects, read-out: arithmetic mean AUC0-∞): 1820 ng·h/mL; Cmax (12.5 mg, 102 study, non-Hispanic or non-Latino subjects, read-out: arithmetic mean Cmax): 146 ng/mL; AUC(0-inf) (12.5 mg, 102 study, non-Hispanic or non-Latino subjects, read-out: geometric mean AUC0-∞): 1680 ng·h/mL; Cmax (12.5 mg, 102 study, non-Hispanic or non-Latino subjects, read-out: geometric mean Cmax): 141 ng/mL; concentration at 15 minutes [1]: 1.03 ng/mL; concentration at 15 minutes [2]: 0.529 ng/mL; concentration at 45 minutes [1]: 56.8 ng/mL; concentration at 45 minutes [2]: 33.9 ng/mL; AUC(0-inf) (17.5 mg, 102 study only, read-out: arithmetic mean AUC0-∞): 3290 ng·h/mL; Cmax (17.5 mg, 102 study only, read-out: arithmetic mean Cmax): 236 ng/mL; AUC(0-inf) (17.5 mg, 102 study only, read-out: geometric mean AUC0-∞): 3110 ng·h/mL; Cmax (17.5 mg, 102 study only, read-out: geometric mean Cmax): 224 ng/mL; AUC(0-inf) (17.5 mg, 102 study, 18-40 years, read-out: arithmetic mean AUC0-∞): 2820 ng·h/mL; Cmax (17.5 mg, 102 study, 18-40 years, read-out: arithmetic mean Cmax): 237 ng/mL; AUC(0-inf) (17.5 mg, 102 study, 18-40 years, read-out: geometric mean AUC0-∞): 2750 ng·h/mL; Cmax (17.5 mg, 102 study, 18-40 years, read-out: geometric mean Cmax): 229 ng/mL; AUC(0-inf) (17.5 mg, 102 study, 41-52 years, read-out: arithmetic mean AUC0-∞): 3520 ng·h/mL; Cmax (17.5 mg, 102 study, 41-52 years, read-out: arithmetic mean Cmax): 232 ng/mL; AUC(0-inf) (17.5 mg, 102 study, 41-52 years, read-out: geometric mean AUC0-∞): 3160 ng·h/mL; Cmax (17.5 mg, 102 study, 41-52 years, read-out: geometric mean Cmax): 213 ng/mL; AUC(0-inf) (17.5 mg, 102 study, 53-60 years, read-out: arithmetic mean AUC0-∞): 3510 ng·h/mL; Cmax (17.5 mg, 102 study, 53-60 years, read-out: arithmetic mean Cmax): 239 ng/mL; AUC(0-inf) (17.5 mg, 102 study, 53-60 years, read-out: geometric mean AUC0-∞): 3470 ng·h/mL; Cmax (17.5 mg, 102 study, 53-60 years, read-out: geometric mean Cmax): 230 ng/mL; AUC(0-inf) (17.5 mg, 102 study, Black or African-American subjects, read-out: arithmetic mean AUC0-∞): 2840 ng·h/mL; Cmax (17.5 mg, 102 study, Black or African-American subjects, read-out: arithmetic mean Cmax): 217 ng/mL; AUC(0-inf) (17.5 mg, 102 study, Black or African-American subjects, read-out: geometric mean AUC0-∞): 2800 ng·h/mL; Cmax (17.5 mg, 102 study, Black or African-American subjects, read-out: geometric mean Cmax): 211 ng/mL; AUC(0-inf) (17.5 mg, 102 study, Hispanic or Latino subjects, read-out: arithmetic mean AUC0-∞): 3520 ng·h/mL; Cmax (17.5 mg, 102 study, Hispanic or Latino subjects, read-out: arithmetic mean Cmax): 258 ng/mL; AUC(0-inf) (17.5 mg, 102 study, Hispanic or Latino subjects, read-out: geometric mean AUC0-∞): 3330 ng·h/mL; Cmax (17.5 mg, 102 study, Hispanic or Latino subjects, read-out: geometric mean Cmax): 243 ng/mL; AUC(0-inf) (17.5 mg, 102 study, White subjects, read-out: arithmetic mean AUC0-∞): 3400 ng·h/mL; Cmax (17.5 mg, 102 study, White subjects, read-out: arithmetic mean Cmax): 241 ng/mL; AUC(0-inf) (17.5 mg, 102 study, White subjects, read-out: geometric mean AUC0-∞): 3200 ng·h/mL; Cmax (17.5 mg, 102 study, White subjects, read-out: geometric mean Cmax): 228 ng/mL; AUC(0-inf) (17.5 mg, 102 study, body weight 47-70 kg, read-out: arithmetic mean AUC0-∞): 3180 ng·h/mL; Cmax (17.5 mg, 102 study, body weight 47-70 kg, read-out: arithmetic mean Cmax): 261 ng/mL; AUC(0-inf) (17.5 mg, 102 study, body weight 47-70 kg, read-out: geometric mean AUC0-∞): 2930 ng·h/mL; Cmax (17.5 mg, 102 study, body weight 47-70 kg, read-out: geometric mean Cmax): 242 ng/mL; AUC(0-inf) (17.5 mg, 102 study, body weight 70.1-77 kg, read-out: arithmetic mean AUC0-∞): 3890 ng·h/mL; Cmax (17.5 mg, 102 study, body weight 70.1-77 kg, read-out: arithmetic mean Cmax): 254 ng/mL; AUC(0-inf) (17.5 mg, 102 study, body weight 70.1-77 kg, read-out: geometric mean AUC0-∞): 3730 ng·h/mL; Cmax (17.5 mg, 102 study, body weight 70.1-77 kg, read-out: geometric mean Cmax): 246 ng/mL; AUC(0-inf) (17.5 mg, 102 study, body weight 77.1-90 kg, read-out: arithmetic mean AUC0-∞): 2910 ng·h/mL; Cmax (17.5 mg, 102 study, body weight 77.1-90 kg, read-out: arithmetic mean Cmax): 200 ng/mL; AUC(0-inf) (17.5 mg, 102 study, body weight 77.1-90 kg, read-out: geometric mean AUC0-∞): 2850 ng·h/mL; Cmax (17.5 mg, 102 study, body weight 77.1-90 kg, read-out: geometric mean Cmax): 194 ng/mL; AUC(0-inf) (17.5 mg, 102 study, non-Hispanic or non-Latino subjects, read-out: arithmetic mean AUC0-∞): 3050 ng·h/mL; Cmax (17.5 mg, 102 study, non-Hispanic or non-Latino subjects, read-out: arithmetic mean Cmax): 214 ng/mL; AUC(0-inf) (17.5 mg, 102 study, non-Hispanic or non-Latino subjects, read-out: geometric mean AUC0-∞): 2910 ng·h/mL; Cmax (17.5 mg, 102 study, non-Hispanic or non-Latino subjects, read-out: geometric mean Cmax): 207 ng/mL; concentration at 15 minutes [3]: 0.669 ng/mL; concentration at 45 minutes [3]: 51.6 ng/mL
